From PubChem BioAssay AID248 (DTP/NCI, 2004)
Where “and” joins values, the source holds several entries; their conditions need not be identical. Equal entries are not always repeated. Inconclusive results and toxic doses are left out.

Tested on: L1210 leukemia ip in BDF1 mice, survival T/C
Test: NCI In Vivo Anticancer Drug Screen. Data for tumor model L1210 Leukemia (intraperitoneal) in B6D2F1 (BDF1) mice
Conditions: higher = longer survival
Procedure, shortened: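 Tumor was transplanted into mice, which were then dosed with test compound or vehicle alone. Survival was recorded for each group, and the treated figure was expressed relative to the control figure.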

[1] = endpoint: mean survival time, dose: 100.0 mg/kg/injection, schedule: Q01DX009 (ip), vehicle: Klucel (hydroxypropylcellulose) (HPC)
[2] = endpoint: mean survival time, dose: 100.0 mg/kg/injection, schedule: Q04DX003 (ip), vehicle: Klucel (hydroxypropylcellulose) (HPC)
[3] = endpoint: mean survival time, dose: 200.0 mg/kg/injection, schedule: Q01DX009 (ip), vehicle: Klucel (hydroxypropylcellulose) (HPC)
[4] = endpoint: mean survival time, dose: 200.0 mg/kg/injection, schedule: Q04DX003 (ip), vehicle: Klucel (hydroxypropylcellulose) (HPC)
[5] = endpoint: mean survival time, dose: 400.0 mg/kg/injection, schedule: Q01DX009 (ip), vehicle: Klucel (hydroxypropylcellulose) (HPC)
[6] = endpoint: mean survival time, dose: 400.0 mg/kg/injection, schedule: Q04DX003 (ip), vehicle: Klucel (hydroxypropylcellulose) (HPC)
[7] = endpoint: mean survival time, dose: 100.0 mg/kg/injection, schedule: Q01DX001 (ip), vehicle: Klucel (hydroxypropylcellulose) (HPC)
[8] = endpoint: mean survival time, dose: 200.0 mg/kg/injection, schedule: Q01DX001 (ip), vehicle: Klucel (hydroxypropylcellulose) (HPC)
[9] = endpoint: mean survival time, dose: 400.0 mg/kg/injection, schedule: Q01DX001 (ip), vehicle: Klucel (hydroxypropylcellulose) (HPC)
[10] = endpoint: mean survival time, dose: 100.0 mg/kg/injection, schedule: Q04DX003 (ip), vehicle: saline with Tween-80

`O=Cc1ccc(O)c(O)c1` was tested, and the T/C (endpoint: mean survival time, dose: 100.0 mg/kg/injection, schedule: Q01DX Z (ip), vehicle: other) was 101 % of control and 102 % of control, the T/C (endpoint: mean survival time, dose: 150.0 mg/kg/injection, schedule: Q01DX Z (ip), vehicle: other) was 101 % of control and 107 % of control and the T/C (endpoint: mean survival time, dose: 160.0 mg/kg/injection, schedule: Q01DX Z (ip), vehicle: carboxymethylcellulose (CMC)) was 115 % of control. For the same molecule, the T/C (endpoint: mean survival time, dose: 160.0 mg/kg/injection, schedule: Q01DX Z (ip), vehicle: other) was 122 % of control, the T/C (endpoint: mean survival time, dose: 225.0 mg/kg/injection, schedule: Q01DX Z (ip), vehicle: other) was 98 % of control and 120 % of control and the T/C (endpoint: mean survival time, dose: 240.0 mg/kg/injection, schedule: Q01DX Z (ip), vehicle: carboxymethylcellulose (CMC)) was 122 % of control. For the same molecule, the T/C (endpoint: mean survival time, dose: 340.0 mg/kg/injection, schedule: Q01DX Z (ip), vehicle: other) was 101 % of control and 107 % of control, the T/C (endpoint: mean survival time, dose: 510.0 mg/kg/injection, schedule: Q01DX Z (ip), vehicle: other) was 113 % of control and the T/C (endpoint: mean survival time, dose: 540.0 mg/kg/injection, schedule: Q01DX Z (ip), vehicle: other) was 93 % of control. The T/C (endpoint: mean survival time, dose: 750.0 mg/kg/injection, schedule: Q01DX Z (ip), vehicle: other) was 113 % of control.
In the case of `NC(=O)c1nc2ccccc2nc1C(N)=O`, the T/C [1] is reported as 92 % of control, the T/C [2] is reported as 92 % of control and the T/C [3] is reported as 92 % of control. For the same molecule, the T/C [4] was 92 % of control, the T/C [5] was 96 % of control and the T/C [6] was 90 % of control.
For `CCCCCCCCCCCCCCCCCCNC(=O)CCl`, the T/C [1] was 94 % of control, the T/C [2] was 92 % of control and the T/C [3] was 89 % of control. For the same molecule, the T/C [4] was 90 % of control and the T/C [6] was 97 % of control.
For `O=C(ON=C(c1ccc(Cl)cc1)c1ccc(Cl)cc1)c1ccc(Cl)cc1`, the T/C (endpoint: median survival time, dose: 300.0 mg/kg/injection, schedule: Q01DX009 (ip), vehicle: Klucel (hydroxypropylcellulose) (HPC)) was 157 % of control, the T/C (endpoint: median survival time, dose: 500.0 mg/kg/injection, schedule: Q01DX009 (ip), vehicle: Klucel (hydroxypropylcellulose) (HPC)) was 88 % of control and the T/C (endpoint: median survival time, dose: 833.0 mg/kg/injection, schedule: Q01DX009 (ip), vehicle: Klucel (hydroxypropylcellulose) (HPC)) was 74 % of control.
With `Cc1nn(C(N)=S)c(C)c1N=Nc1cccc(Cl)c1` the T/C (endpoint: mean survival time, dose: 75.0 mg/kg/injection, schedule: Q01DX001 (ip), vehicle: other) was 96 % of control, the T/C (endpoint: mean survival time, dose: 150.0 mg/kg/injection, schedule: Q01DX001 (ip), vehicle: other) was 100 % of control and the T/C (endpoint: mean survival time, dose: 300.0 mg/kg/injection, schedule: Q01DX001 (ip), vehicle: other) was 105 % of control.
With `Cc1nc2ccccc2nc1CI` the T/C (endpoint: mean survival time, dose: 3.12 mg/kg/injection, schedule: Q01DX009 (ip), vehicle: acetone) was 100 % of control, the T/C (endpoint: mean survival time, dose: 6.25 mg/kg/injection, schedule: Q01DX009 (ip), vehicle: acetone) was 104 % of control and the T/C (endpoint: mean survival time, dose: 12.5 mg/kg/injection, schedule: Q01DX009 (ip), vehicle: acetone) was 100 % of control. The T/C (endpoint: mean survival time, dose: 12.5 mg/kg/injection, schedule: Q04DX003 (ip), vehicle: acetone) was 113 % of control and the T/C (endpoint: mean survival time, dose: 18.0 mg/kg/injection, schedule: Q01DX009 (ip), vehicle: saline with Tween-80) was 92 % of control.
With `NCC1CCNCC1` the T/C (endpoint: mean survival time, dose: 25.0 mg/kg/injection, schedule: Q04DX002 (ip), vehicle: saline) was 103 % of control, the T/C (endpoint: mean survival time, dose: 50.0 mg/kg/injection, schedule: Q04DX002 (ip), vehicle: saline) was 97 % of control and 100 % of control and the T/C (endpoint: mean survival time, dose: 100.0 mg/kg/injection, schedule: Q04DX002 (ip), vehicle: saline) was 103 % of control and 106 % of control. For the same molecule, the T/C (endpoint: mean survival time, dose: 200.0 mg/kg/injection, schedule: Q04DX002 (ip), vehicle: saline) was 102 % of control and 90 % of control and the T/C (endpoint: mean survival time, dose: 400.0 mg/kg/injection, schedule: Q04DX002 (ip), vehicle: saline) was 97 % of control.
With `C=CCCOC(C)=O` the T/C (endpoint: mean survival time, dose: 75.0 mg/kg/injection, schedule: Q04DX003 (ip), vehicle: saline) was 96 % of control, the T/C [1] was 107 % of control and the T/C (endpoint: mean survival time, dose: 150.0 mg/kg/injection, schedule: Q04DX003 (ip), vehicle: saline) was 100 % of control. For the same molecule, the T/C [3] was 97 % of control, the T/C (endpoint: mean survival time, dose: 300.0 mg/kg/injection, schedule: Q04DX003 (ip), vehicle: saline) was 100 % of control and the T/C [5] was 100 % of control.
For `COc1cc2[nH]c(C)c(CCN3CCN(c4ccccc4)CC3)c2cc1OC`, the T/C (endpoint: mean survival time, dose: 3.12 mg/kg/injection, schedule: Q01DX009 (ip), vehicle: Klucel (hydroxypropylcellulose) (HPC)) was 104 % of control, the T/C (endpoint: mean survival time, dose: 6.25 mg/kg/injection, schedule: Q01DX009 (ip), vehicle: Klucel (hydroxypropylcellulose) (HPC)) was 108 % of control and the T/C (endpoint: mean survival time, dose: 12.5 mg/kg/injection, schedule: Q01DX009 (ip), vehicle: Klucel (hydroxypropylcellulose) (HPC)) was 96 % of control. The T/C (endpoint: mean survival time, dose: 25.0 mg/kg/injection, schedule: Q01DX009 (ip), vehicle: Klucel (hydroxypropylcellulose) (HPC)) was 105 % of control, the T/C (endpoint: mean survival time, dose: 25.0 mg/kg/injection, schedule: Q04DX003 (ip), vehicle: Klucel (hydroxypropylcellulose) (HPC)) was 106 % of control and the T/C (endpoint: mean survival time, dose: 50.0 mg/kg/injection, schedule: Q04DX003 (ip), vehicle: Klucel (hydroxypropylcellulose) (HPC)) was 106 % of control.
For `CCOC(=O)C(CC(=O)O)C(c1ccccc1)c1ccccc1` (centres undefined), the T/C [7] was 99 % of control, the T/C [1] was 105 % of control and 106 % of control and the T/C (endpoint: mean survival time, dose: 100.0 mg/kg/injection, schedule: Q04DX002 (ip), vehicle: Klucel (hydroxypropylcellulose) (HPC)) was 98 % of control and 103 % of control. The T/C [8] was 94 % of control, the T/C [3] was 103 % of control and 105 % of control and the T/C (endpoint: mean survival time, dose: 200.0 mg/kg/injection, schedule: Q04DX002 (ip), vehicle: Klucel (hydroxypropylcellulose) (HPC)) was 98 % of control and 100 % of control. For the same molecule, the T/C [9] was 99 % of control, the T/C [5] was 98 % of control and 118 % of control and the T/C (endpoint: mean survival time, dose: 400.0 mg/kg/injection, schedule: Q04DX002 (ip), vehicle: Klucel (hydroxypropylcellulose) (HPC)) was 98 % of control and 103 % of control.
`CCCC1(c2ccsc2)NC(=O)NC1=O` (centres undefined) was tested, and the T/C (endpoint: mean survival time, dose: 100.0 mg/kg/injection, schedule: Q01DX001 (ip), vehicle: carboxymethylcellulose (CMC)) was 98 % of control, the T/C (endpoint: mean survival time, dose: 200.0 mg/kg/injection, schedule: Q01DX001 (ip), vehicle: carboxymethylcellulose (CMC)) was 98 % of control and the T/C (endpoint: mean survival time, dose: 400.0 mg/kg/injection, schedule: Q01DX001 (ip), vehicle: carboxymethylcellulose (CMC)) was 90 % of control.
`NC(=O)c1ccccc1OC(=O)Nc1ccc(F)c([N+](=O)[O-])c1` was tested, and the T/C [1] was 97 % of control, the T/C [3] was 104 % of control and the T/C [5] was 101 % of control.
With `CC(C)Cc1c(N)nc(=S)[nH]c1C(=O)O` the T/C [7] was 100 % of control, the T/C (endpoint: mean survival time, dose: 100.0 mg/kg/injection, schedule: Q04DX003 (ip), vehicle: saline) was 100 % of control and the T/C [8] was 100 % of control. The T/C (endpoint: mean survival time, dose: 200.0 mg/kg/injection, schedule: Q04DX003 (ip), vehicle: saline) was 94 % of control, the T/C [9] was 109 % of control and the T/C (endpoint: mean survival time, dose: 400.0 mg/kg/injection, schedule: Q04DX003 (ip), vehicle: saline) was 94 % of control.
`ClC(c1ccccc1)c1nc2ccccc2[nH]1` (centres undefined) was tested, and the T/C (endpoint: mean survival time, dose: 100.0 mg/kg/injection, schedule: Q01DX001 (ip), vehicle: saline) was 94 % of control and the T/C (endpoint: mean survival time, dose: 200.0 mg/kg/injection, schedule: Q01DX001 (ip), vehicle: saline) was 96 % of control.
With `CCN(CC)CCNC(=O)c1ccc(N=Cc2cc(Br)ccc2O)cc1` the T/C [1] was 98 % of control and the T/C [3] was 96 % of control.
With `CCC/C=N/NC(=O)CCCCCCCCCCCCCCCCC` the T/C [1] was 86 % of control, the T/C [3] was 88 % of control and the T/C [5] was 88 % of control.
`OC[CH2][Sb]([Cl])([Cl])([c]1ccccc1)[c]1ccccc1` was tested, and the T/C (endpoint: mean survival time, dose: 5.0 mg/kg/injection, schedule: Q04DX002 (ip), vehicle: saline with Tween-80) was 97 % of control, the T/C (endpoint: mean survival time, dose: 10.0 mg/kg/injection, schedule: Q04DX002 (ip), vehicle: saline with Tween-80) was 101 % of control and the T/C (endpoint: mean survival time, dose: 20.0 mg/kg/injection, schedule: Q04DX002 (ip), vehicle: saline with Tween-80) was 101 % of control.
`CCN(c1ccccc1)S(=O)(=O)C(C)S(=O)(=O)N(CC)c1ccccc1` was tested, and the T/C (endpoint: mean survival time, dose: 100.0 mg/kg/injection, schedule: Q01DX001 (ip), vehicle: saline with Tween-80) was 97 % of control, the T/C (endpoint: mean survival time, dose: 200.0 mg/kg/injection, schedule: Q01DX001 (ip), vehicle: saline with Tween-80) was 94 % of control and the T/C (endpoint: mean survival time, dose: 400.0 mg/kg/injection, schedule: Q01DX001 (ip), vehicle: saline with Tween-80) was 103 % of control.
For `CC1C2CCC(C2)C1C(=O)O` (centres undefined), the T/C (endpoint: mean survival time, dose: 100.0 mg/kg/injection, schedule: Q01DX009 (ip), vehicle: other) was 97 % of control, the T/C [10] was 96 % of control and the T/C (endpoint: mean survival time, dose: 200.0 mg/kg/injection, schedule: Q01DX009 (ip), vehicle: other) was 109 % of control. For the same molecule, the T/C (endpoint: mean survival time, dose: 400.0 mg/kg/injection, schedule: Q01DX009 (ip), vehicle: other) was 95 % of control and the T/C (endpoint: mean survival time, dose: 400.0 mg/kg/injection, schedule: Q04DX003 (ip), vehicle: saline with Tween-80) was 87 % of control.
For `O=C(Nc1ccccc1F)NC(CO)(CO)CO`, the T/C [1] was 97 % of control, the T/C [3] was 98 % of control and the T/C [5] was 95 % of control.
`CC(C)(C)NC(=O)Cc1ccccc1` was tested, and the T/C (endpoint: mean survival time, dose: 50.0 mg/kg/injection, schedule: Q04DX003 (ip), vehicle: saline with Tween-80) was 97 % of control, the T/C [10] was 98 % of control and the T/C (endpoint: mean survival time, dose: 200.0 mg/kg/injection, schedule: Q04DX003 (ip), vehicle: saline with Tween-80) was 103 % of control.
